{
  "source": "patent US6531292B1",
  "about": "“Genes and proteins controlling cholesterol synthesis” (The Regents of the University of California, priority 1995, dated 2003)",
  "key": {"6myc-Hmg2p": {"test_system": "6myc-Hmg2p", "experiment": "6myc-Hmg2p degradation by cycloheximide chase and stationary chase with immunoblotting", "assay_type": "cell-based, yeast", "conditions": "small dose of lovastatin (50 μg/ml) added to cultures", "description": "(§1) FIG. 1. 6myc-Hmg2p: an unregulated variant of Hmg2p. A) schematic diagram of the unregulated 6myc-Hmg2p. […] The tagged protein was still capable of catalyzing the reduction of 3-hydroxy-3-methyl glutaryl CoA (HMG-CoA) to mevalonate (MEV), an essential intermediate of cholesterol biosynthesis. B) The degradation of 6myc-Hmg2p was not regulated by the mevalonate pathway. Cells expressing 6myc-Hmg2p (RHY244) or Hmg2p (RHY183) were examined for degradation of each protein by addition of cycloheximide at time zero and subsequent immunoblotting, as described by Hampton and Rine (J Cell Biol 125: 299-312, 1994). In the indicated samples, 50 μg/ml of lovastatin was added along with the cycloheximide at t=0. The 6myc-Hmg2planes (left panel) were immunoblotted using the 9E10 anti-myc antibody, and the Hmg2p lanes (right panel) were immunoblotted with affinity purified anti-Hmg1p protein. Each lane contained lysate from ˜0.2 O.D.600 units of cells. C) Test of 6myc-Hmg2p degradation by “stationary chase.” Log phase (OD600˜0.5) cultures of the strains used in Panel B were allowed to grow for an additional 15 hours at 30° C., and then subjected to lysis and immunoblotting to evaluate degradation of the expressed reductase (Hampton et al., Proc. Natl. Acad. Sci. USA. 93: 828-833, 1996). […]"}, "Hmg2p": {"target": "T1, Hmg2p (Saccharomyces cerevisiae, UniProt P12684)", "T1 construct": "Note the lowered mobility of the 6myc-Hmg2p protein as compare to the native Hmg2p; expressed in transfected cells; host or cells: S. cerevisiae strain RHY183 (hmg1 and hmg2 disrupted; single integrated HMG2 coding region under the GAPDH promoter)", "T1 sequence (P12684 1-1045)": "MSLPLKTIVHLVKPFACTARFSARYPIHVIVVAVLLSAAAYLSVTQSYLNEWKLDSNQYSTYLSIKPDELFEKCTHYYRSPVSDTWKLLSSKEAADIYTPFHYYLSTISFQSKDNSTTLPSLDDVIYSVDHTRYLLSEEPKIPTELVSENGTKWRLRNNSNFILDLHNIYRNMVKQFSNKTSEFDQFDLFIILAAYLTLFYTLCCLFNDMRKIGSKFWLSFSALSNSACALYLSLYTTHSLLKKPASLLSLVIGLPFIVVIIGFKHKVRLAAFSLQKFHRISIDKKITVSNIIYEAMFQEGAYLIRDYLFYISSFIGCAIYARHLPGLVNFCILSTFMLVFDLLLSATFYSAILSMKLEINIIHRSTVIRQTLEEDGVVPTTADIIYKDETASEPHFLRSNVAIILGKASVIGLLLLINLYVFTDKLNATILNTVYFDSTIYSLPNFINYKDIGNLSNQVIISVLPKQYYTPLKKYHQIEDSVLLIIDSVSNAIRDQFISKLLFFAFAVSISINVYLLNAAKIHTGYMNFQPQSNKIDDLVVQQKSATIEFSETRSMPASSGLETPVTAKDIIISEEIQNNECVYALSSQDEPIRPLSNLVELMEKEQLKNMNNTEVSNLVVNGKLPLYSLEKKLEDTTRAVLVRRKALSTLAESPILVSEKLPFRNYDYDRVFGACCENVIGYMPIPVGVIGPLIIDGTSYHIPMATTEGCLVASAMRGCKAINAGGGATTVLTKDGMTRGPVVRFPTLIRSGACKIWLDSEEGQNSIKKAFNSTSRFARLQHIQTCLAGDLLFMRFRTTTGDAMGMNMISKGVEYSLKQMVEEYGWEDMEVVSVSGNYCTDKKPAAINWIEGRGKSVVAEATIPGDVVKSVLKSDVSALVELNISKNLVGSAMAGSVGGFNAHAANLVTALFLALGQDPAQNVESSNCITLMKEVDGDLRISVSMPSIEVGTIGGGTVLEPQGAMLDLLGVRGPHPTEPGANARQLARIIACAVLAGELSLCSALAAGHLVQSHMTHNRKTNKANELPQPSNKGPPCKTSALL", "experiment": "Hmg2p degradation by cycloheximide chase and stationary chase with immunoblotting", "assay_type": "cell-based, yeast", "conditions": "small dose of lovastatin (50 μg/ml) added to cultures", "description": "as §1"}, "[1]": {"test_system": "strain expressing 6myc-Hmg2p (RHY244)", "experiment": "Lovastatin sensitivity (growth, plating efficiency) of strain expressing 6myc-Hmg2p", "assay_type": "cell-based, yeast", "conditions": "liquid medium, FIG. 1d"}, "[2]": {"test_system": "strain expressing Hmg2p (RHY183)", "experiment": "Lovastatin sensitivity (growth, plating efficiency) of strain expressing Hmg2p", "assay_type": "cell-based, yeast"}, "proteasome": {"test_system": "proteasome", "conditions": "Jensen et al. 1995; cited from earlier work"}, "mammalian HMG-R": {"test_system": "mammalian HMG-R", "conditions": "mammalian cells, previous studies; cited from earlier work"}, "hrd mutant yeast strains": {"test_system": "hrd mutant yeast strains", "experiment": "Canavanine sensitivity of hrd mutant strains on solid medium", "assay_type": "cell-based", "conditions": "1.5 μg/ml canavanine, 30° C., one week; versus isogenic parent strain", "description": "FIG. 7. Proteasomal phenotypes associate with the hrd2-1 mutant. A) Canavanine sensitivity. Liquid cultures of strains with the indicated mutations, but otherwise isogenic, were spotted onto supplemented minimal medium ([…] of ˜0.5 OD) with or without 1.5 μg/ml canavanine as indicated, and allowed to grow at 30° C. for a week. B) Global ubiquitination. Lysates of the same strains were immunoblotted with affinity-purified anti-ubiquitin antibody to survey the degree of ubiquitination of cellular proteins. The line indicates the position of an 80 kD marker. Equal amounts of protein were loaded in each lane and the transfer efficiency from each lane was identical, as judged by India ink staining. The average increase in the amount of ubiquitin conjugates in the hrd2-1 mutant was approximately threefold over the amount in other strains. C) Complementation of the hrd2-1 mutant by the human TRAP-2 coding region. Strain RHY402 (hrd2-1, Ura^−) was transformed with parent vector pRH98-1, with a centromere plasmid containing the HRD2 gene (pRH482) or with a plasmid that expressed the TRAP-2 coding region from the GAPDH promoter (pRH492). These transformants are noted “vector, HRD2, and TRAP-2”, respectively. Each strain was then streaked on solid medium with 0 (top) or 200 μg/ml (bottom) and allowed to grow at 37° C. […]"}},
  "note": "“And” between values parts separate entries of the source, which are not always exact repeats. Equal values may be shown once. Square brackets hold non-standard residues; d marks the D form. Peptide text beside a SMILES is read from it. Nle = CCCC[C@H](N)C(=O)O",
  "data": [
    {"compound": "CC[C@H](C)C(=O)O[C@H]1C[C@@H](C)C=C2C=C[C@H](C)[C@H](CC[C@@H]3C[C@@H](O)CC(=O)O3)[C@H]21", "note": "[lovastatin]", "values": [
      {"measurement": "effect on degradation of 6myc-Hmg2p", "setting": "6myc-Hmg2p", "result": "unaffected"},
      {"measurement": "effect on degradation of wild-type Hmg2p", "setting": "Hmg2p", "result": "dramatically stabilized"},
      {"measurement": "lovastatin sensitivity relative to isogenic strain expressing HMG2", "setting": "[1]", "result": "more sensitive"},
      {"measurement": "growth of strain", "setting": "[2]; hmg1::LYS2 hmg2::HIS3 strain with single integrated HMG2 driven by GAPDH promoter, dose-dependent", "result": "blocked"},
      {"measurement": "plating efficiency of surviving colonies on lovastatin medium", "setting": "[2]; non-mutagenized cells expressing wild-type Hmg2p, solid lovastatin-containing medium", "result": "0.1-1% and ~1%"}
    ]},
    {"compound": "CCCC[C@@H](C=O)NC(=O)[C@H](CC(C)C)NC(=O)[C@H](CC(C)C)NC(C)=O", "note": "[ALLN] (Ac-Leu-Leu-[Nle]-aldehyde)", "values": [
      {"measurement": "inhibition of the proteasome", "setting": "proteasome", "result": "potent inhibitor"},
      {"measurement": "degradation of mammalian HMG-R", "setting": "mammalian HMG-R", "result": "inhibited"}
    ]},
    {"compound": "N=C(N)NOCC[C@H](N)C(=O)O", "note": "[canavanine]", "values": [
      {"measurement": "sensitivity of hrd1 or hrd3 alleles to canavanine", "setting": "hrd mutant yeast strains", "result": "no more sensitive"},
      {"measurement": "sensitivity of hrd2 mutants to canavanine", "setting": "hrd mutant yeast strains", "result": "heightened sensitivity"}
    ]}
  ]
}
